Laboratory results as given in PubChem BioAssay (NCI).
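Compound exposure: 48 hours, 5 concentrations, 96-well plates. GI50 is the concentration that inhibits growth by half. TGI marks complete inhibition of growth.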

What was measured:
Assay in all cases: DTP human tumour cell line panel, 48 h
[1] = test system: 786-0 renal
[2] = test system: A498 renal
[3] = test system: A549 NSCLC
[4] = test system: ACHN renal
[5] = test system: BT-549 breast
[6] = test system: CAKI-1 renal
[7] = test system: CCRF-CEM leukemia
[8] = test system: COLO 205 colon
[9] = test system: DU-145 prostate
[10] = test system: EKVX NSCLC
[11] = test system: HCC-2998 colon
[12] = test system: HCT-116 colon
[13] = test system: HCT-15 colon
[14] = test system: HL-60(TB) leukemia
[15] = test system: HOP-62 NSCLC
[16] = test system: HS 578T breast
[17] = test system: HT29 colon
[18] = test system: K-562 leukemia
[19] = test system: KM12 colon
[20] = test system: LOX IMVI melanoma
[21] = test system: M14 melanoma
[22] = test system: MALME-3M melanoma
[23] = test system: MCF7 breast
[24] = test system: MDA-MB-435
[25] = test system: MOLT-4 leukemia
[26] = test system: NCI-H226 lung
[27] = test system: NCI-H23 lung
[28] = test system: NCI-H460 lung
[29] = test system: NCI-H522 lung
[30] = test system: NCI/ADR-RES ovarian
[31] = test system: OVCAR-3 ovarian
[32] = test system: OVCAR-4 ovarian
[33] = test system: OVCAR-5 ovarian
[34] = test system: OVCAR-8 ovarian
[35] = test system: PC-3 prostate
[36] = test system: RXF 393 renal
[37] = test system: SF-268 CNS
[38] = test system: SF-295 CNS
[39] = test system: SF-539 CNS
[40] = test system: SK-MEL-2 melanoma
[41] = test system: SK-MEL-28 melanoma
[42] = test system: SK-MEL-5 melanoma
[43] = test system: SK-OV-3 ovarian
[44] = test system: SN12C renal
[45] = test system: SNB-19 CNS
[46] = test system: SNB-75 CNS
[47] = test system: SR leukemia
[48] = test system: SW-620 colon
[49] = test system: T-47D breast
[50] = test system: TK-10 renal
[51] = test system: U251 CNS
[52] = test system: UACC-257 melanoma
[53] = test system: UACC-62 melanoma
[54] = test system: UO-31 renal
[55] = test system: HOP-92 NSCLC
[56] = test system: IGROV1 ovarian
[57] = test system: MDA-MB-231 breast
[58] = test system: RPMI-8226 leukemia

## CC(C)(C)c1cc(C(=O)Nc2ccccc2C(=O)NCCN)cc(C(C)(C)C)c1
[1]
  GI50: 1.75 µM
  TGI: 3.51 µM
[2]
  GI50: 2.38 µM
  TGI: 6.44 µM
[3]
  GI50: 2.11 µM
  TGI: 4.2 µM
[4]
  GI50: 1.84 µM
  TGI: 3.46 µM
[5]
  GI50: 2.33 µM
  TGI: 5.84 µM
[6]
  GI50: 2.21 µM
  TGI: 5.56 µM
[7]
  GI50: 2.5 µM
  TGI: 6.36 µM
[8]
  GI50: 1.81 µM
  TGI: 3.41 µM
[9]
  GI50: 1.84 µM
  TGI: 3.4 µM
[10]
  GI50: 1.76 µM
  TGI: 3.96 µM
[11]
  GI50: 1.83 µM
  TGI: 3.4 µM
[12]
  GI50: 1.8 µM
  TGI: 3.25 µM
[13]
  GI50: 1.89 µM
  TGI: 3.45 µM
[14]
  GI50: 2.15 µM
  TGI: 4.46 µM
[15]
  GI50: 1.67 µM
  TGI: 3.21 µM
[16]
  GI50: 2.07 µM
  TGI: 4.63 µM
[17]
  GI50: 1.84 µM
  TGI: 3.59 µM
[18]
  GI50: 2.23 µM
  TGI: 5.33 µM
[19]
  GI50: 1.79 µM
  TGI: 3.4 µM
[20]
  GI50: 1.53 µM
  TGI: 2.98 µM
[21]
  GI50: 1.91 µM
  TGI: 3.64 µM
[22]
  GI50: 1.93 µM
  TGI: 3.64 µM
[23]
  GI50: 1.76 µM
  TGI: 3.54 µM
[24]
  GI50: 1.72 µM
  TGI: 3.24 µM
[25]
  GI50: 2.2 µM
  TGI: 4.86 µM
[26]
  GI50: 1.96 µM
  TGI: 3.74 µM
[27]
  GI50: 1.94 µM
  TGI: 3.89 µM
[28]
  GI50: 1.94 µM
  TGI: 3.67 µM
[29]
  GI50: 1.85 µM
  TGI: 3.82 µM
[30]
  GI50: 1.93 µM
  TGI: 3.89 µM
[31]
  GI50: 1.89 µM
  TGI: 3.46 µM
[32]
  GI50: 1.89 µM
  TGI: 3.82 µM
[33]
  GI50: 1.78 µM
  TGI: 3.81 µM
[34]
  GI50: 2.08 µM
  TGI: 4.2 µM
[35]
  GI50: 1.79 µM
  TGI: 3.5 µM
[36]
  GI50: 2.01 µM
  TGI: 3.58 µM
[37]
  GI50: 1.86 µM
  TGI: 3.62 µM
[38]
  GI50: 1.88 µM
  TGI: 3.59 µM
[39]
  GI50: 1.89 µM
  TGI: 3.5 µM
[40]
  GI50: 1.94 µM
  TGI: 3.7 µM
[41]
  GI50: 1.91 µM
  TGI: 3.64 µM
[42]
  GI50: 1.82 µM
  TGI: 3.27 µM
[43]
  GI50: 1.9 µM
  TGI: 3.69 µM
[44]
  GI50: 1.97 µM
  TGI: 3.97 µM
[45]
  GI50: 1.93 µM
  TGI: 3.75 µM
[46]
  GI50: 1.68 µM
  TGI: 5.08 µM
[47]
  GI50: 1.94 µM
  TGI: 4.56 µM
[48]
  GI50: 1.87 µM
  TGI: 3.87 µM
[49]
  GI50: 1.76 µM
  TGI: 3.51 µM
[50]
  GI50: 1.68 µM
  TGI: 3.12 µM
[51]
  GI50: 1.89 µM
  TGI: 3.42 µM
[52]
  GI50: 1.9 µM
  TGI: 3.93 µM
[53]
  GI50: 1.83 µM
  TGI: 3.44 µM
[54]
  GI50: 1.67 µM
  TGI: 3.17 µM

## O=C1Nc2ccc(Br)cc2C12CC(c1ccccc1)=NN2 (stereo unspecified)
[1]
  GI50: 5.66 µM
  TGI: 48.5 µM
[2]
  GI50: 2.24 µM
  TGI: 8.38 µM
[3]
  GI50: 4.53 µM
  TGI: > 100 µM
[4]
  GI50: 7.96 µM
  TGI: > 100 µM
[5]
  GI50: 13 µM
  TGI: 74.3 µM
[6]
  GI50: 2.8 µM
  TGI: 16.6 µM
[7]
  GI50: 3.67 µM
  TGI: 37.7 µM
[8]
  GI50: 3.79 µM
  TGI: 15.2 µM
[9]
  GI50: 3.35 µM
  TGI: 16.4 µM
[11]
  GI50: 15.9 µM
  TGI: 65.1 µM
[12]
  GI50: 4.27 µM
  TGI: 17 µM
[13]
  GI50: 3.56 µM
  TGI: 48.8 µM
[14]
  GI50: 2.77 µM
  TGI: 8.47 µM
[15]
  GI50: 6.17 µM
  TGI: > 100 µM
[55]
  GI50: 1.66 µM
  TGI: 26.2 µM
[17]
  GI50: 4.08 µM
  TGI: 13 µM
[56]
  GI50: 3.51 µM
  TGI: 29.3 µM
[18]
  GI50: 2.84 µM
  TGI: 31 µM
[19]
  GI50: 3.86 µM
  TGI: 38.8 µM
[20]
  GI50: 7.21 µM
  TGI: 22.9 µM
[21]
  GI50: 3.25 µM
  TGI: > 100 µM
[22]
  GI50: 2.04 µM
  TGI: 6.93 µM
[23]
  GI50: 2.48 µM
  TGI: 64.5 µM
[57]
  GI50: 6.19 µM
  TGI: 29.5 µM
[25]
  GI50: 5.04 µM
  TGI: 30.5 µM
[26]
  GI50: 6.93 µM
  TGI: > 100 µM
[27]
  GI50: 5.43 µM
  TGI: 77.2 µM
[28]
  GI50: 3.76 µM
  TGI: 19.4 µM
[29]
  GI50: 3.56 µM
  TGI: 9.43 µM
[30]
  GI50: 3.89 µM
  TGI: 35.8 µM
[31]
  GI50: 3.26 µM
  TGI: 13.9 µM
[32]
  GI50: 5.31 µM
  TGI: 77.6 µM
[33]
  GI50: 16.7 µM
  TGI: > 100 µM
[34]
  GI50: 5.7 µM
  TGI: 39.2 µM
[35]
  GI50: 2.28 µM
  TGI: 18.4 µM
[58]
  GI50: 3.07 µM
  TGI: 12.2 µM
[36]
  GI50: 2.14 µM
  TGI: 6.05 µM
[37]
  GI50: 9.25 µM
  TGI: > 100 µM
[38]
  GI50: 2.77 µM
  TGI: 9.5 µM
[39]
  GI50: 2.1 µM
  TGI: 6.02 µM
[40]
  GI50: 4.48 µM
  TGI: 25.6 µM
[41]
  GI50: 7.48 µM
  TGI: > 100 µM
[42]
  GI50: 3.2 µM
  TGI: 14.1 µM
[43]
  GI50: 4.44 µM
  TGI: 87.3 µM
[44]
  GI50: 6.8 µM
  TGI: 51.2 µM
[45]
  GI50: 9.25 µM
  TGI: > 100 µM
[46]
  GI50: 1.35 µM
  TGI: 6.91 µM
[47]
  GI50: 2.88 µM
  TGI: 19.5 µM
[48]
  GI50: 3.87 µM
  TGI: 23.8 µM
[49]
  GI50: 5.48 µM
  TGI: > 100 µM
[51]
  GI50: 3.84 µM
  TGI: 19.2 µM
[52]
  GI50: 5.98 µM
  TGI: > 100 µM
[53]
  GI50: 5.38 µM
  TGI: 27.1 µM
[54]
  GI50: 4.46 µM
  TGI: > 100 µM
